US20110275647A1, “PYRIMIDIN-4-(3H)-ONE DERIVATIVES” (MSD K.K., priority 2009, published 2011)

Molecular target: T1, human MGAT2 (Homo sapiens, UniProt Q3SYC2)
T1 construct: made in house; host or cells: Pichia pastoris (vector pPICZA), membrane fraction
Test: MGAT2 inhibitory activity test
Assay type: biochemical
Conditions: MGAT2-expressed yeast membrane fraction, [14C]-oleoyl-CoA, 37° C. for 30 minutes
Experimental: Human MGAT2 genes were amplified by PCR using primers described below from human cDNA library (Clontech).
The amplified human MGAT2 genes were introduced into a yeast expression vector pPICZA (Invitrogen). The resultant expression plasmid was introduced into an yeast (Pichia pastris) by electroporation to produce a recombinant yeast. The recombinant yeast was cultured in the presence of 0.5% methanol for 72 hours, and the cells were crushed using glass beads in 10 mM Tris pH 7.5, 250 mM sucrose and 1 mM EDTA, followed by adjusting the membrane fraction by centrifugation to use the adjusted membrane fraction as an enzyme source.
To the reaction solution, 100 μl of 2-propanol/heptan (80:20) was added, the mixture was stirred well, followed by addition of 200 μl of heptane and further stirring the mixture. After centrifugation, the heptane layer was collected, 80 μl of ethanol/0.1N NaOH/H2O (50:5:45) was added, the mixture was thus stirred, followed by recentrifuging the mixture and collecting the heptane layer. After exsiccation of the resultant heptane layer, 100 μl of Microscint 0 (PerkinElmer) was added, and the radioactivity was measured with a liquid scintillation counter. The inhibitory activity was calculated from the following formula:
Inhibition rate=100−(radioactivity in case of addition of test compound−background)/(radioactivity in case of addition of no test compound−background)×100
wherein the background means the radioactivity in case of addition of no membrane fraction.

T1 sequence (Q3SYC2 whole entry): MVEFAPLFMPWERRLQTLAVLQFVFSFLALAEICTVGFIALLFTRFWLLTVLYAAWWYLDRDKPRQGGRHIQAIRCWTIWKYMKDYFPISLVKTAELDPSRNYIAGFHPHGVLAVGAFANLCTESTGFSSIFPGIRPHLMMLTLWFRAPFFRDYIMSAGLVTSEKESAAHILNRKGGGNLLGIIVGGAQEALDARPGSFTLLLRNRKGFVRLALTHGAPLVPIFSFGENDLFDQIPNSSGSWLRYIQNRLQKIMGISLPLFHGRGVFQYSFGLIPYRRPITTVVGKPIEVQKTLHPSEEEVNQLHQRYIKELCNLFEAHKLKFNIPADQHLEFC

**Q.** `O=c1c2c(nc(SCc3ccccc3)n1-c1ccccc1)CCN(c1nc3cc(F)c(F)cc3[nH]1)C2` [Example 1, 6-(5,6-difluoro-1H-benzimidazol-2-yl)-3-phenyl-2-[(phenylmethyl)thio]-5,6,7,8-tetrahydropyrido[4,3-d]pyrimidin-4(3H)-one] was tested. Which IC50 did it give?
**A.** 817 nM

**Q.** For `O=c1c2c(nc(SCc3ccccc3)n1-c1ccccc1)CCN(c1nc3cc(C(F)(F)F)ccc3[nH]1)C2` [Example 2, 6-(5-trifluoromethyl-1H-benzimidazol-2-yl)-3-phenyl-2-[(phenylmethyl)thio]-5,6,7,8-tetrahydropyrido[4,3-d]pyrimidin-4(3H)-one], which IC50 is on record?
**A.** 184 nM

**Q.** How did the IC50 turn out when `O=c1c2c(nc(SCc3cccnc3)n1-c1ccccc1)CCN(c1nc3cc(C(F)(F)F)ccc3[nH]1)C2` [Example 3, 3-phenyl-2-[(pyridin-3-ylmethyl)thio]-6-[5-(trifluoromethyl)-1H-benzimidazol-2-yl]-5,6,7,8-tetrahydropyrido[4,3-d]pyrimidin-4(3H)-one] was run?
**A.** 56 nM

**Q.** How did the IC50 turn out when `O=c1c2c(nc(SCc3ccnnc3)n1-c1ccccc1)CCN(c1nc3cc(C(F)(F)F)ccc3[nH]1)C2` [Example 4, 3-phenyl-2-[(pyridazin-4-ylmethyl)thio]-6-[5-(trifluoromethyl)-1H-benzimidazol-2-yl]-5,6,7,8-tetrahydropyrido[4,3-d]pyrimidin-4(3H)-one] was run?
**A.** 114 nM
